Measured values taken from patent US8211892B2, “Tetrahydroquinoxaline urea derivatives” (Sanofi-Aventis, priority 2008, dated 2012).

Assays:
[1] = biological target: T1, recombinant 11βHSD1 protein (Homo sapiens, UniProt P28845); assay: SPA (Scintillation Proximity Assay) test of in vitro inhibition of the enzyme 11βHSD1, 384-well format; assay type: biochemical; conditions: 3H-cortisone and NADPH, SPA beads, cortisol formed; read-out: IC50 (concentration which inhibits 50% of the activity of 11βHSD1)
T1 construct: made in house; host or cells: Saccharomyces cerevisiae
Source text: The compounds according to the invention formed the subject of pharmacological assays which make it possible to determine their inhibiting effect on the enzyme 11βHSD1, which is involved in the metabolism of lipids and the metabolism of glucose.
These assays consisted in measuring the in vitro inhibiting activity of the compounds of the invention on the enzyme 11βHSD1 by virtue of an SPA (Scintillation Proximity Assay) test in 384-well format. The recombinant 11βHSD1 protein was produced in the yeast S. cerevisiae. The reaction was carried out by incubating the enzyme in the presence of ^3H-cortisone and of NADPH, in the absence or in the presence of an increasing concentration of inhibitor. SPA beads coupled to an antimouse antibody, which are preincubated with an anticortisol antibody, made it possible to measure the amount of cortisol formed during the reaction.

11βHSD1 in the eyes = biological target: T2, 11βHSD1 in the eyes (Homo sapiens, UniProt P28845); conditions: healthy volunteers, treatment for seven days; cited from earlier work
T2 construct: The 11βHSD1 is located in the nonpigmented epithelial calls; host or cells: healthy volunteers (in vivo, ocular tissue)
T2 sequence (P28845 whole entry): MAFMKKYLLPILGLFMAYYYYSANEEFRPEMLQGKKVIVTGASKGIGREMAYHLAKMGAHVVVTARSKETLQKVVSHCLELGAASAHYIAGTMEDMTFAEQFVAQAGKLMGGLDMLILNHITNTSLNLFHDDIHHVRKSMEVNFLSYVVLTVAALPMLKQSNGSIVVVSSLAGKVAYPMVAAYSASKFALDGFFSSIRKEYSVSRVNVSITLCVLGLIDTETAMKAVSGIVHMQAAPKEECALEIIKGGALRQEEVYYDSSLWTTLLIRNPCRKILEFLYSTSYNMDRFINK

T1 sequence (P28845 whole entry, species assumed): as the sequence (P28845 whole entry) above

SMILES	IC50 [1]	melting point	reduction of the intraocular pressure (IOP) (11βHSD1 in the eyes)
O=C(NC1C2CC3CC(C2)CC1C3)N1CCN(c2ccc(OCc3ncccn3)cc2)c2ccccc21 (centres unmarked) [Compound No. 3, 4-[4-(Pyrimidin-2-ylmethoxy)Phenyl]-3,4-dihydro-2H-quinoxaline-1-carboxylic Acid adamantan-2-ylamide]	405 nM	123 to 125 °C	–
CS(=O)(=O)N1CCC(O)(c2ccc(N3CCN(C(=O)N[C@H]4C5CC6CC4C[C@@](O)(C6)C5)c4ccccc43)cc2)CC1 [Compound No. 16, Trans-4-[4-(4-Hydroxy-1-(methanesulphonyl)Piperidin-4-yl)Phenyl]-3,4-dihydro-2H-quinoxaline-1-carboxylic Acid (5-hydroxy-adamantan-2-yl)Amide]	28 nM	160 °C	–
CS(=O)(=O)N1CCN(c2ccc(N3CCN(C(=O)N[C@H]4C5CC6CC4C[C@@](CO)(C6)C5)c4ccccc43)cc2)CC1 [Compound No. 21, Trans-4-[4-(4-(Methanesulphonyl)Piperazin-1-yl)Phenyl]-3,4-dihydro-2H-quinoxaline-1-carboxylic Acid (5-(hydroxymethyl)Adamantan-2-yl)Amide]	–	160 °C	–
CS(=O)(=O)N1CCN(c2ccc(N3CCN(C(=O)N[C@H]4C5CC6CC4C[C@@](F)(C6)C5)c4ccccc43)cc2)CC1 [Compound No. 40, Trans-4-[4-(4-(Methanesulphonyl)Piperazin-1-yl)Phenyl]-3,4-dihydro-2H-quinoxaline-1-carboxylic Acid (5-fluoroadamantan-2-yl)Amide]	–	165 to 200 °C	–
O=C(N[C@H]1C2CC3CC1C[C@@](O)(C3)C2)N1CCN(c2ccc(N3CCC(O)CC3)cc2)c2ccccc21 [Compound No. 51, Trans-4-[4-(4-Hydroxypiperidin-1-yl)Phenyl]-3,4-dihydro-2H-quinoxaline-1-carboxylic Acid (5-hydroxyadamantan-2-yl)Amide]	–	131 °C	–
CCS(=O)(=O)N1CCN(c2ccc(N3CCN(C(=O)N[C@H]4C5CC6CC4C[C@@](C(N)=O)(C6)C5)c4ccccc43)nc2)CC1 [Compound No. 149, Trans-4-[5-(4-(Ethanesulphonyl)Piperazin-1-yl)Pyridin-2-yl]-3,4-dihydro-2H-quinoxaline-1-carboxylic Acid (5-carbamoyladamantan-2-yl)Amide]	–	175 °C	–
CC1(C)[C@@H](OC(=O)CCC(=O)O)CC[C@]2(C)[C@H]3C(=O)C=C4[C@@H]5C[C@@](C)(C(=O)O)CC[C@]5(C)CC[C@@]4(C)[C@]3(C)CC[C@@H]12 [carbenoxolone]	–	–	18%
CS(=O)(=O)N1CC=C(c2ccc(N3CCN(C(=O)NC4C5CC6CC4CC(O)(C6)C5)c4ccccc43)cc2)CC1 (centres unmarked) [compound 15]	49 nM	103 °C	–
CC(C)N1CCN(C(=O)c2ccc(-c3ccc(N4CCN(C(=O)NC5C6CC7CC5CC(O)(C7)C6)c5ccccc54)cc3)nc2)CC1 (centres unmarked) [compound 27]	17 nM	127 °C	–
NC(=O)C12CC3CC(C1)C(NC(=O)N1CCN(c4ccc(N5CCN(S(=O)(=O)C6CCNCC6)CC5)cc4)c4ccccc41)C(C3)C2 (centres unmarked) [compound 95]	8 nM	230 °C	–
CC(C)(C)N1CCN(c2ccc(N3CCN(C(=O)NC4C5CC6CC4CC(C(N)=O)(C6)C5)c4ccccc43)cc2)CC1 (centres unmarked) [compound 96]	19 nM	228 °C	–
O=C(NC1C2CC3CC1CC(O)(C3)C2)N1CCN(c2ccc(N3CCN(S(=O)(=O)C4CCC4)CC3)cn2)c2ccccc21 (centres unmarked) [compound 119]	7 nM	188 °C	–
CS(=O)(=O)N1CCC2(CCN(c3ccc(N4CCN(C(=O)NC5C6CC7CC5CC(O)(C7)C6)c5ccccc54)cc3)C2)C1 (centres unmarked) [compound 132]	187 nM	127 °C	–
N#C[C@]12CC3CC(C1)[C@H](NC(=O)N1CCN(c4ccc(N5CCN(S(=O)(=O)C6CC6)CC5)cn4)c4ccccc41)C(C3)C2 [compound 165, Trans-4-[5-(4-(Cyclopropanesulphonyl)Piperazin-1-yl)Pyridin-2-yl]-3,4-dihydro-2H-quinoxaline-1-carboxylic Acid (5-cyanoadamantan-2-yl)Amide]	–	188 °C	–
CC(C)(C)N1CCC(c2ccc(N3CCN(C(=O)N[C@H]4C5CC6CC4C[C@@](C(N)=O)(C6)C5)c4ccccc43)nc2)CC1 [compound 170, Trans-4-(1′-(tert-Butyl)-1′,2′,3′,4′,5′,6′-hexahydro-[3,4′]bipyridinyl-6-yl)-3,4-dihydro-2H-quinoxaline-1-carboxylic Acid (5-carbamoyladamantan-2-yl)Amide]	–	228 °C	–
CS(=O)(=O)CCN1CCN(c2ccc(N3CCN(C(=O)N[C@H]4C5CC6CC4C[C@@](C(N)=O)(C6)C5)c4ccccc43)nc2)CC1 [compound 178, Trans-4-{5-[4-(2-(Methanesulphonyl)Ethyl)Piperazin-1-yl]-pyridin-2-yl}-3,4-dihydro-2H-quinoxaline-1-carboxylic Acid (5-carbamoyladamantan-2-yl)Amide]	–	204 °C	–

The next lines start with results.

IC50 [1]	melting point	SMILES	reduction of the intraocular pressure (IOP) (11βHSD1 in the eyes)
130 nM	250 °C	CC(=O)N[C@]12CC3CC(C1)[C@H](NC(=O)N1CCN(c4ccc(N5CCN(S(C)(=O)=O)CC5)cc4)c4ccccc41)C(C3)C2 [Compound No. 137, Trans-4-[4-(4-(Methanesulphonyl)Piperazin-1-yl)Phenyl]-3,4-dihydro-2H-quinoxaline-1-carboxylic Acid (5-acetylaminoadamantan-2-yl)Amide]	–
624 nM	163 to 169 °C	O=C(c1ccc(-c2csc(N3CCN(C(=O)NC4C5CC6CC(C5)CC4C6)c4ccccc43)n2)cc1)N1CCOCC1 (centres unmarked) [compound 6]	–
28 nM	197 °C	O=C(NC1C2CC3CC1CC(O)(C3)C2)N1CCN(c2ccc(Oc3nccc(C(F)(F)F)n3)cc2)c2ccccc21 (centres unmarked) [compound 14]	–
94 nM	95 °C	O=C(NC1C2CC3CC1CC(O)(C3)C2)N1CCN(c2ccc(N3CCC(F)(F)CC3)cc2)c2ccccc21 (centres unmarked) [compound 30]	–
–	138 to 160 °C	CCS(=O)(=O)N1CCN(c2ccc(N3CCN(C(=O)N[C@H]4C5CC6CC4C[C@@](O)(C6)C5)c4ccccc43)cc2)CC1 [compound 34, trans-4-[4-(4-(Ethanesulphonyl)Piperazin-1-yl)Phenyl]-3,4-dihydro-2H-quinoxaline-1-carboxylic Acid (5-hydroxyadamantan-2-yl)Amide]	–
7 nM	193 to 194 °C	CC(C)Oc1ccc(-c2ccc(N3CCN(C(=O)NC4C5CC6CC4CC(C(N)=O)(C6)C5)c4ccccc43)cc2)nc1 (centres unmarked) [compound 85]	–
8 nM	161 °C	O=C(NC1C2CC3CC1CC(O)(C3)C2)N1CCN(c2ccc(N3CCN(C4CC4)CC3)cn2)c2ccccc21 (centres unmarked) [compound 118]	–
7 nM	–	COCCOCCS(=O)(=O)N1CCN(c2ccc(N3CCN(C(=O)NC4C5CC6CC4CC(C(N)=O)(C6)C5)c4ccccc43)cc2)CC1 (centres unmarked) [compound 125]	–
4 nM	–	CC(C)(C)N1CCN(c2ccc(N3CCN(C(=O)NC4C5CC6CC4CC(C(N)=O)(C6)C5)c4ccccc43)nc2)CC1 (centres unmarked) [compound 128]	–
–	194 to 200 °C	CC(C)(CO)N1CCN(c2ccc(N3CCN(C(=O)N[C@H]4C5CC6CC4C[C@@](C(N)=O)(C6)C5)c4ccccc43)cc2)CC1 [compound 152, Trans-4-{4-[4-(2-Hydroxy-1,1-dimethylethyl)Piperazin-1-yl]phenyl}-3,4-dihydro-2H-quinoxaline-1-carboxylic Acid (5-carbamoyladamantan-2-yl)Amide]	–
–	209 °C	CC(C)CN1CCN(c2ccc(N3CCN(C(=O)N[C@H]4C5CC6CC4C[C@@](C(N)=O)(C6)C5)c4ccccc43)nc2)CC1 [compound 158, Trans-4-[5-(4-Isobutylpiperazin-1-yl)Pyridin-2-yl]-3,4-dihydro-2H-quinoxaline-1-carboxylic Acid (5-carbamoyladamantan-2-yl)Amide]	–
